Series [1] addresses T1, SHV Asn276Asp β-lactamase (Klebsiella pneumoniae, UniProt P0AD64, N270D). The series is described as follows: Steady-state substrate hydrolysis kinetics, Asn276Asp. It counts as biochemical. The note with it: for Km: PBS pH 7.4, room temperature.
Series [2] has as its system E. coli DH10B expressing SHV Asn276Ser. As to the kind of experiment: microbe, parasite or virus in culture. It is filed as cell-based. The note with it: Escherichia coli.
For series [3], the system named is E. coli DH10B expressing SHV Asn276Asp. As to the kind of experiment: microbe, parasite or virus in culture. It is filed as cell-based. The note with it: Escherichia coli.
A further series relates to E. coli DH10B. As to the kind of experiment: MIC, lysogeny broth agar dilution, host strain. The note with it: Escherichia coli. Background: Agar dilution tests growth on a series of plates holding different concentrations.
The subject of series [4] is E. coli DH10B expressing SHV Asn276Gly. The series is described as follows: microbe, parasite or virus in culture. It is filed as cell-based. To be noted: Escherichia coli.
The subject of series [5] is E. coli DH10B expressing SHV Asn276His. As to the kind of experiment: microbe, parasite or virus in culture. It is filed as cell-based. To be noted: Escherichia coli.
Series [6] relates to E. coli DH10B expressing SHV Asn276Pro, -Trp. The series is described as follows: microbe, parasite or virus in culture. It counts as cell-based. The note with it: Escherichia coli.
Series [7] concerns E. coli DH10B expressing SHV-1. The series is described as follows: MIC, agar dilution, strain expressing SHV-1. The note with it: Escherichia coli.
In series [8] the test system is E. coli DH10B expressing SHV Asn276Val. The series is described as follows: microbe, parasite or virus in culture. It is filed as cell-based. To be noted: Escherichia coli.
The subject of series [9] is E. coli DH10B expressing SHV Asn276Met. The series is described as follows: microbe, parasite or virus in culture. It counts as cell-based. The note with it: Escherichia coli.
Series [10] deals with E. coli DH10B expressing SHV Asn276Thr. As to the kind of experiment: microbe, parasite or virus in culture. The note with it: Escherichia coli. It counts as cell-based.
Series [11] has as its system E. coli DH10B expressing SHV Asn276Gln, -Glu, -Cys. The series is described as follows: microbe, parasite or virus in culture. To be noted: Escherichia coli. It counts as cell-based.
The test system of series [12] is E. coli DH10B expressing SHV Asn276Lys, -Arg, -Tyr, -Phe. As to the kind of experiment: microbe, parasite or virus in culture. It counts as cell-based. To be noted: Escherichia coli.
The test system of series [13] is E. coli DH10B expressing SHV Asn276Ala, -Leu, -Ile. The series is described as follows: microbe, parasite or virus in culture. It counts as cell-based. To be noted: Escherichia coli.
The test system of series [14] is E. coli DH10B expressing SHV Asn276 variants. The series is described as follows: MIC, agar dilution, all Asn276 variants taken together. The note with it: for MIC of Asn276 variants compared to SHV-1: all Asn276 variants vs SHV-1, in words.
The target of series [15] is T2, SHV-1 β-lactamase (Klebsiella pneumoniae, UniProt P0AD64). It counts as biochemical.
The target of series [16] is T1, SHV Asn276Asp β-lactamase. The series is described as follows: Inactivation kinetics. To be noted: Asn276Asp vs SHV-1. It is filed as biochemical.
The target of series [17] is T1, SHV Asn276Asp β-lactamase. The series is described as follows: Partition ratio. It counts as biochemical. The note with it: rate of inhibitor hydrolysis, calculated.
Series [18] concerns the target T1, SHV Asn276Asp β-lactamase. The series is described as follows: Direct competition assay against nitrocefin. It is filed as biochemical. To be noted: for increase in Ki for Asn276Asp as compared to SHV-1: Asn276Asp vs SHV-1.
Series [19] deals with T2, SHV-1 β-lactamase. As to the kind of experiment: biochemical.
Series [20] has as its system CC(=O)OCC1=C(C(=O)O)N2C(=O)[C@@H](NC(=O)Cc3cccs3)[C@H]2SC1. As to the kind of experiment: purified protein, by the assay type. The note with it: other: SHV-1, substrate hydrolysis, PBS pH 7.4, room temperature.
Series [21] has as its system O=C(Cc1cccs1)N[C@@H]1C(=O)N2C(C(=O)O)=C(/C=C/c3ccc([N+](=O)[O-])cc3[N+](=O)[O-])CS[C@H]12. As to the kind of experiment: purified protein, by the assay type. To be noted: other: SHV-1, substrate hydrolysis, PBS pH 7.4, room temperature.
The test system of series [22] is CC1(C)S[C@@H]2[C@H](NC(=O)[C@H](N)c3ccccc3)C(=O)N2[C@H]1C(=O)O. The series is described as follows: purified protein, by the assay type. To be noted: other: SHV-1, substrate hydrolysis, PBS pH 7.4, room temperature.
Series [23] relates to CCN1CCN(C(=O)N[C@@H](C(=O)N[C@@H]2C(=O)N3[C@@H]2SC(C)(C)[C@@H]3C(=O)O)c2ccccc2)C(=O)C1=O. The series is described as follows: purified protein, by the assay type. The note with it: other: SHV-1, substrate hydrolysis, PBS pH 7.4, room temperature.

Values after ≈ are worked out from the molar mass of the structure shown. Values joined by “and” are separate entries in the source; they are usually repeats but may differ in a detail not shown here. Equal values may be shown once.

One may read the kcat as the number of substrate molecules converted per active site and unit of time at saturation. The term Km denotes the concentration of substrate that gives half-maximal velocity. In the case of `CC1(C)S[C@@H]2[C@H](NC(=O)[C@H](N)c3ccccc3)C(=O)N2[C@H]1C(=O)O` [ampicillin], the kcat in series [1] turned out to be 989 ± 99 s⁻¹. For the same compound, the Km in series [1] turned out to be 134 ± 13 µM. In addition, the MIC is 4100 µg/mL (≈ 11700 µM) in series [2]; 8190 µg/mL (≈ 23400 µM) in series [3]; 1 µg/mL (≈ 2.86 µM) against E. coli DH10B; 4100 µg/mL (≈ 11700 µM) in series [4]; 1020 µg/mL (≈ 2930 µM) in [5]; 8 to 16 µg/mL (≈ 22.9 to 45.8 µM) in series [6]. The MIC in series [7] is above 16400 µg/mL; in [8] it was 2050 µg/mL (≈ 5860 µM); in series [9], 32 µg/mL (≈ 91.6 µM); in [10], 1020 to 2050 µg/mL (≈ 2930 to 5860 µM); in series [11] it was 1020 to 2050 µg/mL (≈ 2930 to 5860 µM); in series [12], 64 µg/mL (≈ 183 µM). The compound also came in with an MIC in [13] of 256 to 512 µg/mL (≈ 733 to 1470 µM).
As to `CO/N=C(\C(=O)N[C@@H]1C(=O)N2C(C(=O)O)=C(COC(C)=O)CS[C@H]12)c1csc(N)n1` [cefotaxime], in series [14], the “MIC of Asn276 variants compared to SHV-1” value is on record as “comparable to SHV-1”.
As to `CCN1CCN(C(=O)N[C@@H](C(=O)N[C@@H]2C(=O)N3[C@@H]2SC(C)(C)[C@@H]3C(=O)O)c2ccccc2)C(=O)C1=O` [piperacillin], the kcat in series [1] worked out at 976 ± 98 s⁻¹. The Km in series [1] came to 105 ± 18 µM. Also, the MIC in series [2] was 512 µg/mL (≈ 989 µM); in [3] it was 512 µg/mL (≈ 989 µM); against E. coli DH10B it was 1 µg/mL (≈ 1.93 µM); in series [4] it was 256 µg/mL (≈ 495 µM); in series [5] it was 256 µg/mL (≈ 495 µM); in series [6] it was 2 to 4 µg/mL (≈ 3.86 to 7.73 µM). For the same compound, the MIC in series [7] was 2050 µg/mL (≈ 3960 µM); in series [8], 512 µg/mL (≈ 989 µM); in series [9], 4 µg/mL (≈ 7.73 µM); in series [10], 128 to 256 µg/mL (≈ 247 to 495 µM); in [11], 64 to 128 µg/mL (≈ 124 to 247 µM); in series [12], 8 to 16 µg/mL (≈ 15.5 to 30.9 µM). This compound registered an MIC in series [13] of 16 to 32 µg/mL (≈ 30.9 to 61.8 µM).
Regarding `CC(=O)OCC1=C(C(=O)O)N2C(=O)[C@@H](NC(=O)Cc3cccs3)[C@H]2SC1` [cephalothin], the kcat in [1] turned out to be 10 ± 1 s⁻¹. For the same compound, the Km in [1] turned out to be 83 ± 11 µM. The MIC was 16 µg/mL (≈ 40.4 µM) in series [2]; 8 to 16 µg/mL (≈ 20.2 to 40.4 µM) in series [3]; 4 µg/mL (≈ 10.1 µM) in the series on E. coli DH10B; 16 µg/mL (≈ 40.4 µM) in [4]; 16 µg/mL (≈ 40.4 µM) in series [5]; 4 to 8 µg/mL (≈ 10.1 to 20.2 µM) in series [6]. The MIC in series [7] is 64 to 128 µg/mL (≈ 161 to 323 µM); in series [8], 16 µg/mL (≈ 40.4 µM); in series [9], 4 µg/mL (≈ 10.1 µM); in series [10], 8 to 16 µg/mL (≈ 20.2 to 40.4 µM); in series [11] it was 8 to 16 µg/mL (≈ 20.2 to 40.4 µM); in series [12] it was 4 to 8 µg/mL (≈ 10.1 to 20.2 µM). In addition, the MIC in series [13] lay within 4 to 8 µg/mL (≈ 10.1 to 20.2 µM). For the same compound, the “MIC, range over the variants at Asn276” value in series [14] (each of the variants at Asn276) was 4 to 16 µg/mL.
Take `O=C(O)[C@H]1/C(=C/CO)O[C@@H]2CC(=O)N21` [clavulanate]: the figures for the kcat (at SHV-1 β-lactamase [15]; in series [17]) were 0.60 ± 0.17 s⁻¹ and 0.75 ± 0.18 s⁻¹, respectively. Moreover, the “increase in KI for Asn276Asp as compared to SHV-1” value in [16] was determined as 1.6 fold. In addition, in series [18], the “increase in Ki for Asn276Asp as compared to SHV-1” value was 5 fold and 5.4 fold.
As a reminder, the Ki is a dissociation constant, usually derived from enzyme kinetics or from competition with a known ligand. A low value points to a stronger hold on the target. As for `C[C@@H](O)[C@H]1C(=O)N2C(C(=O)O)=C(S[C@@H]3CN[C@H](C(=O)N(C)C)C3)[C@H](C)[C@H]12` [meropenem], the “MIC of Asn276 variants compared to SHV-1” value in [14] is on record as “comparable to SHV-1”. In addition, the inhibition constant (Ki) on SHV-1 β-lactamase [19] is 31 ± 3 µM; in [18] (Ki, Asn276Asp, competition with NCF, corrected for NCF affinity), 1411 ± 14 µM. Further, in [18], the “increase in Ki for Asn276Asp as compared to SHV-1” value was 46 fold.
`O=C(Cc1cccs1)N[C@@H]1C(=O)N2C(C(=O)O)=C(/C=C/c3ccc([N+](=O)[O-])cc3[N+](=O)[O-])CS[C@H]12` [Nitrocefin, nitrocefin]: in series [1], the kcat came out at 137 ± 14 s⁻¹ and the Km was 28 ± 3 µM.
Usually kcat/Km stands for the second-order rate constant that governs catalysis at low substrate concentration. As for “SHV-1 β-lactamase (Klebsiella pneumoniae)”, the Km was 29 ± 1 µM in series [20], 21 ± 3 µM in series [21], 183 ± 34 µM in series [22] and 77 ± 7 µM in [23]. Besides, the catalytic constant (kcat) in series [20] came out at 14 ± 1 s⁻¹; in series [21], 237 ± 24 s⁻¹; in series [22], 3100 ± 300 s⁻¹; in series [23], 898 ± 90 s⁻¹. Further, the kcat/Km in series [20] was 470000 ± 30000 M⁻¹ s⁻¹; in [21], 1.1e+07 ± 2e+06 M⁻¹ s⁻¹; in series [22] it was 1.7e+07 ± 4e+06 M⁻¹ s⁻¹; in [23] it was 1.2e+07 ± 1e+06 M⁻¹ s⁻¹.
